“And” between values parts separate entries of the source, which are not always exact repeats. Equal entries are not always repeated.
Test: in-vitro headspace GC-MS odor-neutralizing test, Relative Odor Activity Value (ROAV)
Details: recreated garlic odor, 0.05% active concentration, vs control, negative value indicates no reduction
Description: The odor-neutralizing or deodorization activity of target actives was evaluated against a recreated garlic odor using an in-vitro headspace gas chromatography-mass spectrometry (GC-MS) method described below. A mixture of five sulfur compounds (ethanethiol, 1-propanethiol, […], methyl allyl disulfide and […]) was used to simulate a garlic odor. […] [See e.g., J. Taucher, et al. J. Agric. Food Chem. (1996), 44 (12), 3778-3782; F. Suarez, et al. Am. J. Physiol. Gastrointest. Liver Physiol. (1999), 276: G425-G430; I. Laakso, et al. Planta Med. (1989), 55, 257-261; X. J. Cai, et al. J. Agric. Food Chem. (1995), 43, 1751-1753; T. Minami, et al. J. Food Sci. (1989), 54, 763-765.]
The following procedure and instrumentation were used to evaluate the relative odor-neutralizing activity of various compounds.
1) Purge product base (e.g., mouthrinse or dental solution) with nitrogen for 10 minutes. 2) Purge all sample preparation vials with stir bars inside for 1 minute. 3) Add 3960 μl product base to control vials (4 ml capacity) and 3560 μl product base to test sample vials (4 ml capacity). 4) Make garlic stock by mixing the following components in order: 600 μl ethanol; 500 μl ethanethiol; 80 μl 1-propanethiol; 30 μl […]; 20 μl methyl allyl disulfide; 70 μl […]. 5) Add 40 ul of garlic stock to each control and test sample vial. 6) Stir all samples to mix product base and garlic stock for a total time of 20 min. To each test sample vial, add 400 μl of test active after 15 min. of stirring and allow test active mix in and react for 5 min. 7) After mixing, transfer 50 μl each of control sample and test sample to nitrogen purged GC headspace vials. 8) Place control and test sample vials on headspace autosampler for GC analysis. Each sample is equilibrated at 32° C. for 3 min. before injection into the GC instrument.
A Relative OAV is calculated for each component by dividing its peak area by its odor threshold value. Odor threshold values for these compounds are reported in the literature. […] A negative value indicates no reduction in ROAV.

Molecule	% Reduction of ROAV	other results
COc1ccc(C=CC=O)cc1 [para-Methoxycinnamaldehyde, reference compound]	−0.49%	
Cc1ccc(C=O)cc1 [4-methylbenzaldehyde]	3.67%	
CCCCCC/C(C=O)=C\c1ccccc1 [Hexyl cinnamaldehyde, reference compound]	−1.19%	
COc1ccc(C=O)cc1 [Anisaldehyde, 4-methoxybenzaldehyde]	20.76%	% Reduction of ROAV (listed as 4-Methoxybenzaldehyde (Anisaldehyde)): 20.76%; % Reduction of ROAV (listed as anisaldehyde): 20.76% and > 20%
O=Cc1ccccc1O [Salicylaldehyde, 2-Hydroxybenzaldehyde, reference compound]	−5.87%	
COc1ccc(C=O)cc1OC [Methyl vanillin (Veratraldehyde), 3,4-Dimethoxybenzaldehyde]	4.45%	
CCc1occc(=O)c1O [Ethyl maltol, reference compound]	−3.46%	
CC(C)=CCCC(C)=CC=O [Citral, reference compound]	−19.54%	
O=CC=Cc1ccccc1 [Cinnamaldehyde]	10.73%	
L(−) Carvone	3.27%	
CCCCCCCC=O [Octanal, reference compound]	−28.76%	% Reduction of ROAV (listed as octanal): no reduction of ROAV
O=Cc1ccc2c(c1)OCO2 [Heliotropin, reference compound]	−2.92%	
CC1=CC(=O)[C@@H](C(C)C)CC1 [(−) Piperitone]	10.19%	
CC(=O)/C=C/C1=C(C)CCCC1(C)C [β-Ionone]	17.56%	
